# Assay results taken from US20230302131A1, “MPC INHIBITION FOR PRODUCING T-CELLS WITH A MEMORY PHENOTYPE” (UNIVERSITÉ DE LAUSANNE, priority 2020, published 2023).
# Entries after “also recorded” stand apart in the source; their conditions may differ.
# What was measured:
# [1] = system: transferred OT1 cells in LM-OVA infected mice; assay: In vivo Listeria-Ova infection model after adoptive transfer of pre-treated OT1 cells; design: species or system mouse
# Source text: In order to evaluate whether this memory phenotype is maintained in vivo, 10^5 MPCi- or DMSO-treated OT1 cells were intravenously injected in healthy mice. Twenty-four hours after cell transfer, the mice were infected with a sub-lethal dose of ovalbumine-expressing Listeria monocytogenes (LM-OVA, 2000 CFU i.v.) (FIG. 1H). […] Consequently, 28 days after LM-OVA infection, during the memory phase of the immune reaction, the proportion of central memory T cells (CD44+CD62L+) among the transferred cells in the blood was larger in mice that received cells pre-treated with MPCi (FIG. 1K). Importantly, the effects of the MPC inhibitor were target specific, since an increase in memory T cell differentiation could also be observed when MPC1 KO T cells were transferred in this Listeria model (FIG. 1L-N). In summary, MPCi-treated cells display a consistent memory phenotype upon in vivo transfer in an infection model.
# Activated CD45.1+OT-1 splenocytes were culture in vitro for 7 days as described above, collected and purified on a Ficoll gradient, allowing to separate dead and live splenocytes. Live splenocytes were counted with Trypan blue stain 0.4%. 100′000 live splenocytes were transferred into CD45.2+ host mice by tail vein injection.
# Recombinant bacteria Listeria monocytogenes deficient for actA and expressing the ovalbumin (Ova) peptide SIINFEKL were expanded and tittered. Optical density measured with a spectrophotometer was used to determine bacterial concentration and 2000 CFU were administered in each mouse by tail vein injection, […] after adoptive cell transfer. Blood samples were collected and processed for surface markers and cytokine production analyses.
# Antibody panels for blood analyses contained: CD8-PE-texas-Red, CD45.1-Pacific blue, CD45.2-FITC, CD127-PE, KLRG1-PE-Cy7, CD62L-APC, CD44-APC-Cy7, and CD27-PerCP-Cy5.5.
# OT1 splenocytes = assay: Metabolomics, acetyl-CoA and 13C tracing by mass spectrometry; assay type: cell-based, mouse
# Source text: (§1) Mechanistically, it was hypothesized by the inventors that epigenetic processes might underlie the observed long-term memory phenotype and anti-tumor activity upon metabolic intervention with MPCi. […] Since acetyl-CoA is the acetyl donor for the acetylation of proteins, amongst which also histones, histone post-translational modifications were examined that are known to make chromatin accessible to transcription factors, a characteristic of memory T cells. […] These are marks known to open chromatin and make it accessible for transcription factor docking. […] Amongst those were Sell, Tcf7 and Ccr7, thereby correlating accessible chromatin with increased mRNA copies (FIG. 3E and see above).
# OT1 splenocytes were activated and cultured as described above. After 66 hours, the cells were collected and the medium was replaced with glucose- and glutamine-free RPMI, supplemented with 10% dialyzed FBS, 1% P/S, 10 mM HEPES, 50 μM β-mercaptoethanol and either 11 mM normal glucose or 11 mM U-^13C6-glucose (Cambridge Isotopes) with respectively 4 mM ^13C5-glutamine (Cambridge Isotopes or 4 mM normal L-glutamine. After 6 hours labelling at 37° C., cells were collected and lysed in Methanol. Next Chloroform was added, and after centrifugation, the fraction containing the polar metabolites was collected and dried on a SpeedVac. Samples were then resuspended and loaded on a mass spectrometer. The spectra of AcetylCoA were analyzed with the M+0 representing the unlabeled fraction, and the M+2 representing the Acetyl group derived from the ^13C-labelled substrate (glucose or glutamine).
# OT1 CD8 T cells = assay: ATAC sequencing of OT1 CD8 T cells; assay type: cell-based, mouse; details: ATAC-seq after 3 days of culture; vs DMSO
# Source text: as §1
# After 3 days of OT1 CD8 T cell culture, 5×10^4 cells were collected and transposed as described before (Buenrostro et al, Transposition of native chromatin for multimodal regulatory analysis and personal epigenomics. Nat Methods. 2013 December; 10(12): 1213-1218.). Amplified transposed fragments were sequenced on an Illumina HiSeq platform.
# Computations of the analysis were performed at the Vital-IT Center for high-performance computing of the SIB Swiss Institute of Bioinformatics. Sequencing reads contained in fastq files were aligned to the Mouse mm10 reference genome using Bowtie2 v.2.3.4.1, and alignment files were manipulated with samtools v.1.8. Peak calling was performed with Macs2 v.2.1.1. […]
# [2] = system: transferred OT1 CD8 T cells; ovalbumine-expressing B16 melanoma; assay: Vaccination model with UK5099 as vaccine adjuvant, then B16 melanoma challenge; assay type: in vivo, mouse; details: vs DMSO; for control of B16 tumor growth after challenge: 0.5 mg s.c. at d0 and d2, B16 challenge 40 days post-vaccination, tumor growth and weight
# Source text: One of the main goals of preventive and therapeutic vaccination in the context of pathogen infection and cancer is the establishment of a potent memory CD8 T cell pool. Since it was observed that MPC inhibition during in vitro priming of antigen-specific CD8 T cells increases their memory formation, it was investigated whether the MPCi could be used as a vaccine adjuvant. 10^5 naïve OT1 CD8 T cells were […] in healthy mice and the mice were subsequently vaccinated by a subcutaneous injection of 50 μg CpG and 10 μg SIINFEKL containing additionally 0.5 mg UK5099 or and equal volume of DMSO as control. 48 hours later, the mice received another subcutaneous injection of 0.5 mg UK5099 or and equal volume of DMSO (FIG. 4A). […] It was investigated whether this would render them better prepared for a subsequent antigen challenge, and injected 10^5 ovalbumine-expressing B16 melanoma cells s.c. in the flank of the mice at 40 days post-vaccination (FIG. 4A).
# Naïve CD8 T cells were isolated from OT1 spleens (negative selection, Stem Cell Technologies). 1×10^5 T cells were i.v. transferred in WT C57BL/6 mice, followed by a subcutaneous injection of the vaccine, consisting of 10 μg SIINFEKL peptide, 50 μg CpG and 0.5 mg UK5099 or DMSO diluted in a total of 100 μl PBS per mouse. 2 days post-vaccination, mice received a second dose of s.c. 0.5 mg UK5099 or DMSO. After 2 weeks, blood was collected from the tail vein and analyzed by flow cytometry. 40 days post-vaccination, mice were challenged by an s.c. injection of 1×10^5 SIINFEKL-expressing B16 melanoma cells. 17 days later, mice were sacrificed and the tumor was dissected.
smiles,measurement,setting,value
"N#CC(=Cc1cn(-c2ccccc2)c2ccccc12)C(=O)O [UK5099, 2-cyano-3-(1-phenyl-1H-indol-3-yl)-2-propenoic acid]",proportion of central memory T cells (CD44+CD62L+) among the transferred cells in the blood,"[1]; 28 days after LM-OVA infection, vs DMSO",larger
same,"frequency of memory precursor cells (CD127+, KLRG1low)","[1]; day 7 post-LM-OVA, blood, pre-treated OT1 cells vs DMSO",significantly increased
same,frequency of the transferred cells in blood,"[1]; weekly bleeding, peak of immune response and contraction phase, cells pre-treated in vitro",did not reveal significant differences
same,13C-glutamine incorporation into acetyl-CoA,OT1 splenocytes; 6 hours labelling,incorporated dramatically more
same,13C-labeled glucose incorporation into acetyl-CoA,OT1 splenocytes; 6 hours labelling,incorporating less
same,total acetyl-CoA levels,"OT1 splenocytes; mass spectrometry, vs DMSO",strong increase
same,genes associated with more accessible chromatin,OT1 CD8 T cells,981 genes
same,control of B16 tumor growth after challenge,[2],protects against tumor growth
same,control of B16 tumor growth after challenge,[2]; listed as MPCi,much better in controlling the tumor growth
same,proportion of transferred OT1 CD8 T cells that formed memory precursor cells,"[2]; 0.5 mg s.c. at d0 and d2 with CpG and SIINFEKL, blood 14 days after vaccination",drives a memory phenotype; also recorded: increased proportion
